Data from patent US9095567B2, “Vaccine formulations” (priority 2010, dated 2015).

What was measured:
Format in all cases: cell-based
[1] = system: Candida albicans (ATCC#10231); assay: Preservative effectiveness test, single challenge
From the text: (§1) To test for preservative effectiveness, aliquots of vaccine were inoculated with the following organisms:
(§2) Thirty milliliters (ml) of each vaccine formulation with and without Thimerosal or 2-PE at indicated concentrations or saline containing Thimerosal at 0.02% were inoculated in triplicates with a suspension of each test organism to achieve an inoculum density of approximately 10^5 to 10^6 CFU/ml at time 0 (CFU=colony forming units). […] Samples were mixed to ensure even distribution of challenged organisms. Another 30 ml of vaccine in triplicate (with and without preservative) were used as a negative control and spiked with the culture media alone to evaluate the inherent contamination that might be present in the sample or media. Each of the three series of vaccines, and positive and negative controls, was then separately incubated at 20 to 25° C. Aliquots (1 ml) of the challenged samples and controls (or their appropriate serial ten fold dilutions) were enumerated by plate count in duplicates at time 0 and at intervals of 6 hours, 24 hours, 7 days, 14 days and 28 days post-inoculation.
(§3) USP 29 NF 24 Supplement 2 (USP) requires that, after an inoculation of bacterial micro-organism(s), there is at least 1.0 log reduction from the initial calculated count (i.e., at time of inoculation) at 7 days, at least 3.0 log reduction at 14 days from the previous value measured and no increase at 28 days from the previous measured value. For yeast and fungi, the USP requirement is for there to be no increase from the time of inoculation to 7, 14 and 28 days.
(§4) EP requirements are more stringent. EP 5th Edition 5.6 (5.1.3) requirements for parenteral and ophthalmic preparations has two components: Category A and Category B. Category A (EP-A) requires, for bacteria, at least 2.0 log reduction from the initial calculated count at 6 hours after inoculation, at least 3.0 log reduction at 24 hours from the previous measured value, and no recovery at 28 days. Category B (EP-B) requires, for bacteria, at least 1.0 log reduction at 24 hours from the initial calculated count, at least 3.0 log reduction at 7 days from the previous value measured and not more than 0.5 log increase at 28 days from the previous value measured (i.e., no increase). For yeast and fungi, Category A requires at least 2.0 log reduction at 7 days and no increase from the previous value measured at 28 days, and Category B requires at least 1.0 log reduction at 14 days and no increase from the previous value measured at 28 days.
(§5) Plates containing <300 CFU for bacteria or <100 CFU for yeast or mold were used during enumeration. For single challenge studies, arithmetic average count of all surviving micro-organisms in triplicate and on duplicate plates (6 values per time point) plus their diluted samples were measured and normalized as CFU/ml. The results are expressed as mean log10 CFU/ml reduction (compared to time 0). In this case, the count of surviving micro-organisms is evaluated at time 0 as the baseline and compared to incubation time of 6 hours, 24 hours, 7 days, 14 days and 28 days.

[2] = system: Staphylococcus aureus (ATCC #6538); assay: Preservative effectiveness test, single challenge
From the text: as §1, §2, §3, §4, §5

S. aureus = assay: Multi-challenge method, S. aureus decay (non-linear regression analysis)
Description: (§6) To represent the worst reasonable case of contamination that may occur in practice during the repeated use of a multi-dose presentation, WHO requires safety testing with deliberate exposure to multiple contamination events using bacterial strains, Pseudomonas Aeruginosa (“PA”), Staphylococcus Aureus (“SA”), Escherichia coli (“EC”) and Bacillus subtilis (“BA”). Formulations are spiked with 5×10^3 CFU/ml of each organism at times 0, 6 hours, 24 hours, 7 days and 14 days after initial challenge and stored either at 2-8° C. or at 22-24° C. to mimic the potential storage conditions in practice.
(§7) To assess the appropriateness of WHO multi-dose Open Vial Policy of vaccines in multiple immunization sessions for up to maximum of four weeks, experimental design provided by WHO was implemented. In this study, the effectiveness of Thimerosal was evaluated at the concentration that is present in the majority of U.S. licensed vaccines (0.01%), as well as at a higher concentration of 0.02%. To represent the worst reasonable case of contamination that may occur in practice during the repeated use of a multi-dose presentation, and to test WHO requirements, Prev(e)nar 13 vaccine formulations with 0.01 or 0.02% Thimerosal or with 5.0 mg/dose of 2-PE were deliberately exposed to multiple contamination events using WHO recommended bacterial strains, P. aeruginosa, S. aureus, E. coli and B. subtilis. Formulations were spiked with 5×10^3 CFU/ml of each organism at times 0, 6 hours, 24 hours, 7 days and 14 days after initial challenge and stored either at 2-8° C. or at 22-24° C. to mimic the potential storage conditions in practice. Saline formulation containing 0.02% Thimerosal was also used as a control to evaluate the potential impact of Prev(e)nar 13 on the antimicrobial efficacy of Thimerosal in the formulation.
As shown in the non-linear regression analysis of decay in the viability of S. aureus is summarized in FIG. 12, the rate of decay of S. aureus was substantially slower ([…], with 50% decay in 30.28 days) when formulation was stored at 2-8° C. compared to that stored at 22-24° C. (−1.39 log10 decay per day, with 50% decay in 6.2 days) (FIG. 12).

[3] = system: P. aeruginosa, S. aureus, E. coli and B. subtilis; assay: Preservative effectiveness test, multi-challenge method, all challenge organisms
Description: as §6, §7

[4] = 0.01% Thimerosal in Prev(e)nar 13, single challenge
[5] = 0.02% Thimerosal in saline (no Prev(e)nar 13) versus vaccine formulation, single challenge
[6] = 0.01% Thimerosal in Prev(e)nar 13, stored at 2-8° C.
[7] = 0.01% Thimerosal in Prev(e)nar 13, stored at 22-24° C.
[8] = 0.02% Thimerosal in Prev(e)nar 13, 22-24° C. storage
[9] = 0.02% Thimerosal in saline control formulation without vaccine
[10] = Prev(e)nar 13 formulation, single challenge, 20 to 25° C.

For C[CH2][Hg][S]c1ccccc1C(=O)[O-].[Na+] [Thimerosal], the “inhibition of C. albicans relative to P. aeruginosa and A. niger” value [1, 4] was “weaker”, the “growth inhibitory effectiveness against C. albicans” value [1, 5] was “slightly improved” and the “reduction of contamination levels, C. albicans” value ([1]; 0.02% Thimerosal versus 0.01% in Prev(e)nar 13, single challenge) was “more pronounced”. For the same compound, the “inhibition of S. aureus relative to P. aeruginosa and A. niger” value [2, 4] was “weaker”, the “growth inhibitory effectiveness against S. aureus” value [2, 5] was “slightly improved” and the “decline of S. aureus” value ([2]; Thimerosal in Prev(e)nar 13, single challenge) was “slow decline”. For the same compound, the “reduction of S. aureus” value (S. aureus; 0.01% Thimerosal in Prev(e)nar 13, multiple challenges, particularly at 2-8° C.) was “slow”, the “rate of decay of S. aureus” value (S. aureus; [6]) was −5.98 log10 decay per day and the “time to 50% decay of S. aureus” value (S. aureus; [6]) was 30.28 days. For the same compound, the “rate of decay of S. aureus” value (S. aureus; [7]) was −1.39 log10 decay per day, the “time to 50% decay of S. aureus” value (S. aureus; [7]) was 6.2 days and the “rate of decay of S. aureus in saline formulation versus vaccine formulation” value (S. aureus; 0.02% Thimerosal, multiple challenges) was “more pronounced”. The “antibacterial effectiveness by organism” value ([3]; 0.01% Thimerosal in Prev(e)nar 13, multiple challenges) was “highest on B. subtilis followed by P. aeruginosa”, the “EP requirements EP-A applied to multi-challenge studies” value [3, 8] was “did not meet” and the “EP requirements EP-B applied to multi-challenge studies” value [3, 8] was “did not meet”. The “acceptance criteria of EP-A when multiply challenged” value [3, 9] was “did not meet”, the “acceptance criteria of EP-B when multiply challenged” value [3, 9] was “did not meet” and the “preservative effectiveness, concentration dependence” value ([3]; Thimerosal 0.02% versus 0.01%, multiple challenges) was “more effective”. The rate of inactivation ([3]; Thimerosal in Prev(e)nar 13, particularly against S. aureus and E. coli) was “slow”, the “EP-B criteria under multiple challenge” value ([3]; Thimerosal, any version tested) was “no version of Thimerosal was able to do so” and the “preservative effectiveness, temperature dependence” value ([3]; Thimerosal, storage at 22-24° C. versus 2-8° C., multiple challenges) was “more effective”.

For OCCOc1ccccc1 [2-PE, 2-phenoxyethanol], the “EP (EP-B) vaccine safety requirements, C. albicans” value [1, 10] was “Fails”, the “USP vaccine safety requirements, C. albicans” value [1, 10] was “Meets” and the “time to reduction of S. aureus to baseline after inoculation” value ([2]; 5.0 mg/dose 2-PE in Prev(e)nar 13, single challenge) was 24 h. The “EP (EP-B) vaccine safety requirements, S aureus” value [2, 10] was “Fails”, the “USP vaccine safety requirements, S aureus” value [2, 10] was “Meets” and the “inactivation of S. aureus viability compared with Thimerosal” value (S. aureus; 5 mg/dose of 2-PE in Prev(e)nar 13, single or multiple challenge, either storage temperature) was “stronger”. The “rate of S. aureus decay (50% decay and average slope) compared with Thimerosal” value (S. aureus; vaccine formulations with 2-PE, non-linear regression analysis) was “faster”, the “EP-B criteria under multiple challenge” value ([3]; 5 mg/dose 2-PE in Prev(e)nar 13) was “met” and the “preservative effectiveness compared with 0.01% Thimerosal” value ([3]; 5 mg/dose 2-PE, multi-challenge method, regardless of storage temperature, all organisms tested) was “superior”. The “rate of antimicrobial effectiveness compared to Thimerosal” value ([3]; 2-PE at 3.5 to 5 mg/dose) was “much higher”.
